Patent publication US7048943B2, “Carotenoid-loaded liposomes” (Yissum Research Development Company of the Hebrew …, priority 2001, dated 2006)
In brackets after ≈: the same amount, converted by molar mass. One block for each compound: values may come before it.

What was measured:
[1] = Partition of lycopene in tri-phase system (soya oil / water / egg PC SUV); type: physicochemical; conditions: for Kp Lip/Oil: partition coefficient liposome/oil, liposomes 10% by weight; for Liposome/oil: ratio of lycopene in liposomal phase to oil phase; for Insoluble lycopene / lycopene concentration, Liposomal phase / lycopene concentration, Oil phase: soya oil / water / egg PC SUV, highest lycopene level; for lycopene concentration, Liposomal phase / lycopene concentration, Oil phase: mixed 2 hours at room temperature
Protocol: The partition coefficient of lycopene in tri-phase systems was also evaluated. Tri-phase systems may serve for the determination of availability of the lycopene into biological membranes. The system used herein was composed from […]: soya oil in which the lycopene was present and water in which liposomes (10% by weight) in the form of small unilamellar vesicles (SUV) composed of pure egg phosphatidyl choline are present as the third phase.
The small unilamellar liposomes (SUV) composed of pure lipid (Ludwigshafen, Germany) egg phosphatidylcholine (egg PC) of an 80 nm were prepared and characterized as described by Haran et al. [Haran G. et al. Biochim. Biophys. Acta 1151:201–215 (1993)]. SUV egg PC size was ˜80 nm. The partition coefficient in the three phase system was performed at three different levels of lycopene—low, medium and high amounts, using crystalline lycopene (originated from fungi), 92% powder (LycoRed), 75% powder lycopene (LycoRed) and oleoresin (containing 6.06% by weight of lycopene). In case of the highest level, lycopene from tomato concentrate (containing 0.073% lycopene) was also evaluated.
Preparation of the three phase systems included the following steps; first, lycopene was dispersed in soya oil (4 ml) by ultrasonic irradiation in an ultrasonic bath (35 kHz, 285W). Then, the precipitate was removed, aliquots of the oil were diluted in isopropanol with ratio ranging from 1:10 to 1:100 and the concentration of lycopene in oil phase was determined.
Then, to soya oil saturated with lycopene (1.5 ml) egg PC SUV in water (1.5 ml) were added to form the three phase system. The system was then mixed for 2 hours at room temperature using a flask shaker (A5-6021, St. John Associate Inc.), after which aliquots of the oil phase and the liposomal aqueous phase were removed.
In particular, the aqueous phase was extracted using heptane into which more than 98% of the lycopene was extracted. This extract was evaporated to dryness and the residue was dissolved in 200 μl isopropanol and analyzed by HPLC to determine the amount of lycopene present in the liquid and oil phase.
The concentration of lycopene in the liposome phase was calculated based on the procedure of Samuni and Barenholz [Samuni A. M. and Barenholz Y, Biol. Med. 22:1165–1174 (1996); Barenholz Y. et al. M. Biophys. J. 59:110–124 (1991)]. The following Table 4 summarizes the results obtained.

[2] = Solubility of lycopene in organic solvents (saturation concentration, HPLC and absorbance at 472 nm)
Protocol: Lycopene Quantification—lycopene was analyzed for degradation and quantified by The HPLC buffer used comprised acetonitrile: methanol: methylene chloride: hexane and a ratio of 850:100:25:25 (all HPLC grade, Hoffman La Roche). Quantification was based on a standard curve obtained for lycopene (LycoRed standard. The amount of lycopene was also determined by absorbance at 472 nm.
All samples were diluted with ethanol before measurement. The saturation concentrations of the lycopene were determined by BPLC and by the use of a spectrophotometer (absorbance at 472 nm, where the area under the peak was measured). The saturation limit was defined as the concentration where a precipitate first appears. The concentration of lycopene at saturation was determined after removal of precipitate by high speed centrifugation from the absorbance at 472 nm (the λmax for the ‘red’ form of lycopene) using double beam UVikon 860 (Kontron, Switzerland) spectrometer.
Both types of lycopene were in a powder form before dissolving in cyclohexane. […] These measures were taken after a year and a half of storage at −20° C.

[3] = tested on: Epidermal equivalents (normal, human-derived epidermal keratinocytes); test: Protection against UV induced loss of viability (LDH release); type: cell-based
Protocol: (§1) Cell Culture • Epidermal equivalents (4.0 cm^2) were purchased from SkinEthic (Nice, France). Each equivalent served as a multilayered model of the epidermis consisting of normal, human-derived epidermal keratinocytes. Equivalents were cultured in a defined hydrocortisone and phenol red free medium supplied from SkinEthic. Instruments • Kontron (Switzerland) HPLC system. 425 pump, 430 detector, 460 automatic injector and 450 data analysis system. Column: LiChroCART®250-4, RP-select B (5 μm), Merck catalog no. […]
(§2) Twenty four hours post irradiation, the culture medium was collected from the treated epidermal equivalents and evaluated for IL-1α release levels using a commercially available ELISA kit. Cell viability was determined immediately post irradiation using LDH leakage measurments.
(§3) Epidermal Equivalents were purchased from SkinEthic (Nice, France) and cultured in phenol free, hydrocortisone free media. […] Forty-eight hours post irradiation, the medium beneath each equivalent was collected and analyzed for secreted IL-1α by ELISA (Endogen). LDH level (Boehringer Mannheim) was measured immediately post irradiation and after 48 hours to determine the effect of treatment and UV exposure on cell viability. […]

[4] = tested on: Epidermal equivalents (normal, human-derived epidermal keratinocytes); test: Protection against UV induced IL-1α release; type: cell-based; conditions: at 0.01%, UV irradiation
Protocol: as §1, §2, §3

CD-1 Mice = test: Oxazolone induced ear edema; type: in vivo; conditions: topical on left ear 1 hour after 2% oxazolone challenge, ear punch weight after 24 hours, versus vehicle group
Protocol: CD-1 Mice were induced with 3% oxazolone (Sigma) (30 mg/ml) made up in corn oil: acetone on a shaved abdomen. Five days later the mice were challenged with a 2% oxazolone (20 (mg/ml) in acetone on the left ear, right ear was untreated. One hour after challenging, the formulations examined (E1–E8) in a 70% EtOH/30% propylene glycol vehicle were applied onto the left ear. After 24 hours the mice were sacrificed and 7 mm ear punches were taken. The ear punches were placed on a scale and the difference between the treated and untreated ears was measured.
The percent inhibition was calculated by comparing the means of each group to the vehicle group. The positive control was hydrocortisone.

[5] = Entrapment of lycopene in MLV liposomes; type: physicochemical; conditions: liposomes composed of lipid/lycopene 10:1
Protocol: Method of Preparation—The phospholipids were dissolved in cyclohexane at a w/v ratio of 1 mg phospholipid per 10 ml cyclohexane. The dissolving required heating for several seconds at 60° C. and/or sonication for up to 3 minutes. Lycopene was added as powder to the solution, which was then vortexed. The resulting solution was lyophilized overnight and kept at −20° C. until use. To form multilamellar liposome (MLV), 2 ml of 0.9% NaCl were added to the lyophilizate followed by vortex to yield MLV encapsulated lycopene.
Method of Preparation—Lycopene was dissolved in cyclohexane at a w/v ratio of 1 mg of lycopene per 2 ml of cyclohexane. The dissolving required heating for several seconds at 60° C. and sonication for up to 3 minutes until all the lycopene was dissolved. The phospholipids were added as powder to the solution and the mixture was mixed with vortex. The solution was lyophilized overnight in bottles and closed in vacuum. The lyophilized bottles were kept at −20° C. until use.
To form MLV encapsulated lycopene, 2 ml of 0.9% NaCl were added followed by vortex. The percentage of entrapment of lycopene in the formulation was 85.31%.
In general, the population of the liposomes was heterogeneous. […] The 75% lycopene entrapment in liposomes composed of lipid/lycopene 10:1 was measured, wherein 17.5% of the lycopene was entrapped in the MLV. […]

SMILES: CC(C)=CCC/C(C)=C/C=C/C(C)=C/C=C/C(C)=C/C=C/C=C(C)/C=C/C=C(C)/C=C/C=C(\C)CCC=C(C)C [Power 92% Powder, lycopene]
- Kp Lip/Oil [1]: 0.4141
- Liposome/oil [1]: 0.0414
- Insoluble lycopene [1]: 6.7084 mμ
- lycopene concentration, Liposomal phase [1]: 0.0020 mμ
- lycopene concentration, Oil phase [1]: 0.0495 mμ

SMILES: O=C1O[C@H]([C@@H](O)CO)C(O)=C1O [Ascorbic acid, ascorbic acid]
- LDH Release, protection, First assay ([3]; at 0.01%, UV irradiation): 100% protection with 0.01%
- IL-1α release, protection, First assay [4]: 100% protection with 0.01%

SMILES: C[C@]12CCC(=O)C=C1CC[C@@H]1[C@@H]2[C@@H](O)C[C@@]2(C)[C@H]1CC[C@]2(O)C(=O)CO [Hydrocortisone, hydrocortisone]
- % inhibition (CD-1 Mice): 92.6%

SMILES: O=C(O)CCCC[C@@H]1CCSS1 (racemic) [Lipoic Acid, lipoic acid]
- Loss of viability (LDH), LDH release, protection ([3]; at 1%, UV irradiation (Table 7C)): 100% protection with 1%

Next, values leading:

- solubility ([2]; cyclohexane, organic solvent or mixture, thermodynamic from solid, maximal solubility in cyclohexane, after a year and a half of storage at −20° C.): 2650 µM (≈ 1420 µg/mL)
SMILES: CC(C)=CCC/C(C)=C/C=C/C(C)=C/C=C/C(C)=C/C=C/C=C(C)/C=C/C=C(C)/C=C/C=C(\C)CCC=C(C)C [lycopene 95%, lycopene]

- maximal solubility in cyclohexane ([2]; after a year and a half of storage at −20° C.): 1960 µM
- Concentration (mM)/HPLC ([2]; saturation in Cyclohexane): 0.22 mM
- Concentration (mM)/HPLC ([2]; saturation in Soy oil): 0.14 mM
- Concentration (mM)/HPLC ([2]; saturation in ethanol): 0.059 mM
- Concentration (mM)/HPLC ([2]; saturation in i-propanol): 0.037 mM
- Concentration (mM)/HPLC ([2]; saturation in n-hexane): 0.18 mM
- Concentration (mM)/HPLC ([2]; saturation in t-butanol): 0.016 mM
- Kp Lip/Oil ([1]; listed as Powder 75%): 0.4972
- Liposome/oil ([1]; listed as Powder 75%): 0.0497
- Insoluble lycopene ([1]; listed as Powder 75%): 5.7899 mμ
- lycopene concentration, Liposomal phase ([1]; listed as Powder 75%): 0.0062 mμ
- lycopene concentration, Oil phase ([1]; listed as Powder 75%): 0.1239 mμ
- lycopene entrapped in the MLV [5]: 17.5%
SMILES: CC(C)=CCC/C(C)=C/C=C/C(C)=C/C=C/C(C)=C/C=C/C=C(C)/C=C/C=C(C)/C=C/C=C(\C)CCC=C(C)C [lycopene 75%, lycopene]

- Kp Lip/Oil [1]: 0.00952
- Liposome/oil [1]: 0.00095
- Insoluble lycopene [1]: 6.9740 mμ
- lycopene concentration, Liposomal phase [1]: 0.0001 mμ
- lycopene concentration, Oil phase [1]: 0.1458 mμ
SMILES: CC(C)=CCC/C(C)=C/C=C/C(C)=C/C=C/C(C)=C/C=C/C=C(C)/C=C/C=C(C)/C=C/C=C(\C)CCC=C(C)C [Crystalline, lycopene, reference compound]

- solubility in an aqueous phase ([1]; conclusion from tri-phase system): very low, if any
SMILES: CC(C)=CCC/C(C)=C/C=C/C(C)=C/C=C/C(C)=C/C=C/C=C(C)/C=C/C=C(C)/C=C/C=C(\C)CCC=C(C)C [lycopene]
